These results are taken from PubChem BioAssay AID1996.

Each structure is given as a SMILES string. Values after ≈ are worked out from the molar mass of the structure shown. Bounds are passed on as bounds.

Broadly, the kinetic solubility is solubility judged after dilution from a stock solution rather than from solid.

For this data set the following is noted: buffer; pH 7.4; 200.0 µM.
Molecule `CCC(=NCCCn1ccnc1)c1c(O)n(-c2ccccc2)c(=O)[nH]c1=O` showed a kinetic solubility above 55.1 µg/mL.

Molecule `CC(C)C(=O)N1CCN(c2nc3ccc(Cl)cc3s2)CC1` returned a solubility (kinetic) above 48.6 µg/mL.

In turn, `Fc1ccccc1NC(=S)NCCc1ccc(Cl)cc1` showed a kinetic solubility of 39 µg/mL (≈ 126 µM).

Molecule `c1ccc(CNCCc2c[nH]c3ccccc23)cc1` gave a solubility (kinetic) of 37.2 µg/mL (≈ 149 µM).

With `CN(C(=O)CN1C(=O)NC2(CCc3ccccc32)C1=O)C1CCCCC1` (stereo not given), the kinetic solubility was above 53.3 µg/mL.

As to `O=C1ON=C(c2cccc([N+](=O)[O-])c2)/C1=C/c1ccc(O)cc1`, the solubility (kinetic) is above 46.5 µg/mL.

Molecule `C=CCc1cccc(CNc2cnc3ccccc3c2)c1O` yielded a kinetic solubility below 0.3 µg/mL.

The molecule `CN(CC(=O)Nc1ccc(SC(F)F)cc1)C1CCCCC1` displayed a solubility (kinetic) of 32.2 µg/mL (≈ 98 µM).

Regarding `Cl.NCCN1C(=O)S/C(=C\c2ccc3c(c2)OCO3)C1=O`, the kinetic solubility is above 49.3 µg/mL.

Turning to `O=C(NCc1ccc(Cl)cc1)N1CCc2ccccc2C1`, the solubility (kinetic) was determined as 4.5 µg/mL (≈ 15 µM).

Regarding `CNC(=S)NC1(C)CCS(=O)(=O)C1` (stereo not given), the solubility (kinetic) was above 33.3 µg/mL.

In turn, `CCc1ccc(OCCCC(=O)Nc2cccc(C(=O)O)c2)cc1` registered a kinetic solubility above 49.1 µg/mL.

`NC(=O)C1CCCN1S(=O)(=O)c1ccc2ccccc2c1` (stereo not given) came in with a kinetic solubility above 45.7 µg/mL.

The molecule `CCOc1ccc(-c2c(=O)n(O)c3ccccc3[n+]2[O-])cc1` came in with a solubility (kinetic) above 44.7 µg/mL.

The molecule `O=C(Cc1cccc2ccccc12)Nc1cc(C(=O)O)cc(C(=O)O)c1` returned a kinetic solubility above 52.4 µg/mL.

Consider `O=C(Cc1ccc(Cl)cc1)N1CCN(c2ccccc2)CC1`, for which the kinetic solubility is 44.5 µg/mL (≈ 141 µM).

Regarding `CN(C(=O)Cc1c(C(=O)O)n(C)c2ccccc12)c1ccc(Cl)cc1`, the solubility (kinetic) is above 53.5 µg/mL.

`CCOC(=O)C1CCCN(C(=O)c2cc3cc(OC)c(OC)cc3[nH]2)C1` (stereo not given) registered a kinetic solubility of 17.5 µg/mL (≈ 48.6 µM).

`CC(=O)Nc1ccc(Nc2cc(C)nc3ccccc23)cc1` gave a kinetic solubility of 40.2 µg/mL (≈ 138 µM).

Molecule `O=S(=O)(c1ccccc1)N1CCN(Cc2c(O)ccc3ccccc23)CC1` yielded a kinetic solubility of 6.6 µg/mL (≈ 17.3 µM).

Consider `CCOc1ccc(NC(C)=O)cc1[N+](=O)[O-]`, for which the kinetic solubility is above 33.6 µg/mL.

`Cc1ccnc(NS(=O)(=O)c2ccc3c(c2)CCO3)c1` returned a kinetic solubility of 10.4 µg/mL (≈ 35.8 µM).

On to `CN(C(=O)CSc1nc2ccccc2c(=O)n1-c1ccccc1F)C1CCS(=O)(=O)C1` (stereo not given), for which the kinetic solubility came out at 16.2 µg/mL (≈ 35.1 µM).

On to `CCOC(=O)C1=C(C)OC(N)=C(C#N)C1c1cccc(C)c1` (stereo not given), for which the kinetic solubility amounted to 43.7 µg/mL (≈ 146 µM).

With `O=C(COC(=O)c1cccc(F)c1)NC(=O)NC1CCCC1`, the solubility (kinetic) amounted to 41.4 µg/mL (≈ 134 µM).

In the case of `O=C(NC1CCCN(Cc2ccccc2F)C1)C1CCC1` (stereo not given), the solubility (kinetic) was above 43.6 µg/mL.

In turn, `Cc1cc(C)c(NC(=S)NCCO)c(C)c1` returned a solubility (kinetic) above 35.8 µg/mL.

`CC(=O)C1C(=O)c2c(cccc2[N+](=O)[O-])C1=Nc1cccc(Cl)c1` (stereo not given) gave a kinetic solubility of 1.6 µg/mL (≈ 4.67 µM).

Molecule `O=C(Nc1ccccn1)C(=O)Nc1ccccn1` gave a solubility (kinetic) of 35.6 µg/mL (≈ 147 µM).

As to `CCOC(=O)C1=NNC2(CC(=O)N(c3cccc(C)c3)C2=O)C1` (stereo not given), the solubility (kinetic) is above 47.3 µg/mL.

The molecule `COC(=O)c1cc(=O)n(-c2c(Cl)cc(C(F)(F)F)cc2Cl)[nH]1` had a kinetic solubility above 53.3 µg/mL.

Consider `COc1ccccc1-n1cnnc1SCC(=O)N1CCOCC1`, for which the solubility (kinetic) was above 50.2 µg/mL.

As for `Nc1nc(-c2cccs2)c(-c2cccs2)s1`, the solubility (kinetic) came out at 5.8 µg/mL (≈ 21.9 µM).

`CC(C)OC(=O)/C(=C\c1ccccc1)NC(=O)c1ccccc1` showed a solubility (kinetic) above 46.4 µg/mL.

The molecule `CC(NC(=O)C1=CC=CN2CCS(=O)(=O)N=C12)c1ccc(Cl)c(Cl)c1` (stereo not given) yielded a kinetic solubility above 60 µg/mL.

Take `CC(N=C1NS(=O)(=O)c2ccccc21)C(=O)NCc1ccc(F)cc1` (stereo not given): the kinetic solubility is above 54.2 µg/mL.

`CCNc1ccc(C(=O)OCC(=O)N2CCCC2)cc1[N+](=O)[O-]` registered a kinetic solubility of 43.9 µg/mL (≈ 137 µM).

`Cc1cc(C)c(NC(=O)CNC(=O)c2ccc3ncsc3c2)c(C)c1` returned a solubility (kinetic) of 6.7 µg/mL (≈ 19 µM).

Molecule `COc1ccc(NS(=O)(=O)c2cccc(C(=O)OCC(=O)NC3CC3)c2)cc1` showed a kinetic solubility of 11.6 µg/mL (≈ 28.7 µM).

In turn, `COc1ccc(C(C#N)=C2C=CC(=NO)C=C2)cc1` registered a solubility (kinetic) of 4.2 µg/mL (≈ 16.6 µM).
